# System: 855422-203-R-J1-PDC spheroids with HUVEC/MSC, viability
# Experiment: Anticancer human tumor 855422-203-R-J1-PDC patient-derived bladder carcinoma cell line growth inhibition [PI3K]
# Settings: for IC50: curve of first compound; for viability, T/C: stronger effect = lower value
# From the text: Combinatorial screen of targeted agents with the PI3K inhibitors inavolisib, alpelisib, duvelisib, and copanlisib in multi-cell type tumor spheroids
# A high-throughput screen of multi-cell type tumor spheroids was designed to identify active combinations of targeted small molecules and PI3K pathway inhibitors. Complex spheroids include a stromal component modeled by human endothelial cells (HUVEC) and fibroblasts modeled by human mesenchymal stem cells (MSCs). The concentration ranges selected for each drug and investigational agent were based upon clinically achievable concentrations if the clinical Cmax of the agent was known.
# Compounds. The drugs and investigational agents: inavolisib (NSC800729), alpelisib (NSC765974), duvelisib (NSC772469), copanlisib (NSC816437), ipatasertib (NSC767898), afuresertib (NSC778305), talazoparib (NSC767125), sapanisertib (NSC764658), selumetinib (NSC741078), tovorafenib (DAY101, NSC766906), vemurafenib (NSC761431), ravoxertinib (NSC781343), sotorasib (NSC818433), MRTX1133 (NSC 836407), abemaciclib (NSC 768073), palbociclib (NSC758247), venetoclax (NSC 766270), SY5609 (NSC837396), enzalutamide (NSC755605), and darolutamide (NSC825331), were obtained from the National Cancer Institute (NCI) Developmental Therapeutics Program Chemical Repository. The FDA-approved anticancer drug set is available from the NCI Developmental Therapeutics Program. […] The stock solutions were prepared in dimethyl sulfoxide (DMSO, Sigma-Aldrich, St. Louis, MO, cat. D2650) at 800-fold the tested concentration and stored at -70 degrees C prior to their use. All drugs and investigational agents were tested over a range starting from a high concentration at or near the clinical Cmax and decreasing in half-log increments. If the clinical Cmax for an agent had not been determined, the highest concentration tested was 10 microM.
# Cell Culture. All cells were maintained in an incubator at 37 degrees C and 5% CO2 with 95% humidity. The PDC lines were cultured according to standard operating procedures established by the NCI PDMR (https://pdmr.cancer.gov/sops/default.htm). All PDCs were thawed and cultured in Matrigel-coated flasks prepared with a working solution of 1X Ham's F-12 nutrient mix, without supplementation (Invitrogen, Waltham, MA, cat. 11765054), 100 U/mL penicillin-streptomycin (Invitrogen, cat. 15140122), and 2.5% Matrigel (Corning Inc., Corning, NY, cat. 354248) for the first three passages. The 354836-022-R-J1-PDC, 475296-252-R-J1-PDC, and 997726-040-R-J2-PDC lines were cultured in 6A media, which includes advanced DMEM/F-12 (Thermo Fisher Scientific, cat. 12634028), 10 mM HEPES (Thermo Fisher Scientific, cat. 15630080), 1X GlutaMAX supplement (Thermo Fisher Scientific, cat. 35050061), 0.1 mg/mL primocin (InvivoGen, San Diego, CA, cat. ant-pm-2), 10% defined fetal bovine serum, heat inactivated (HyClone Laboratories Inc., Logan, UT, cat. SH30070.03HI), 50% L-WRN conditioned media (ATCC, cat. CRL-3276), 1.25 mM N-Acetyl-L-cysteine (Sigma-Aldrich, cat. A9165), 10 mM nicotinamide (Sigma-Aldrich, cat. N0636), 1X B-27 supplement (Thermo Fisher Scientific, cat. 17504044), 1X N-2 supplement (Thermo Fisher Scientific, cat. 17502048), and 10 microM Y-27632 dihydrochloride (Tocris Bioscience, Bristol, United Kingdom, cat. 1254). The 624824-186-R-J2-PDC line was cultured in 6C/Colon 1B media, which includes all 6A media components plus 50 ng/mL human EGF recombinant protein (Thermo Fisher Scientific, cat. PHG0311). […]
# [1] = second compound 0.00316 µM, first compound 0.0316 µM
# [2] = second compound 0.00316 µM, first compound 0.1 µM
# [3] = second compound 0.00316 µM, first compound 0.316 µM
# [4] = second compound 0.00316 µM, first compound 1 µM
# [5] = second compound 0.00316 µM, first compound 3.16 µM
# [6] = second compound 0.00316 µM, first compound 10 µM
# [7] = second compound 0.01 µM, first compound 0.0316 µM
# [8] = second compound 0.01 µM, first compound 0.1 µM
# [9] = second compound 0.01 µM, first compound 0.316 µM
# [10] = second compound 0.01 µM, first compound 1 µM
# [11] = second compound 0.01 µM, first compound 3.16 µM
# [12] = second compound 0.01 µM, first compound 10 µM
# [13] = second compound 0.0316 µM, first compound 0.0316 µM
# [14] = second compound 0.0316 µM, first compound 0.1 µM
# [15] = second compound 0.0316 µM, first compound 0.316 µM
# [16] = second compound 0.0316 µM, first compound 1 µM
# [17] = second compound 0.0316 µM, first compound 3.16 µM
# [18] = second compound 0.0316 µM, first compound 10 µM
# [19] = second compound 0.1 µM, first compound 0.0316 µM
# [20] = second compound 0.1 µM, first compound 0.1 µM
# [21] = second compound 0.1 µM, first compound 0.316 µM
# [22] = second compound 0.1 µM, first compound 1 µM
# [23] = second compound 0.1 µM, first compound 3.16 µM
# [24] = second compound 0.1 µM, first compound 10 µM
# [25] = second compound 0.316 µM, first compound 0.0316 µM
# [26] = second compound 0.316 µM, first compound 0.1 µM
# [27] = second compound 0.316 µM, first compound 0.316 µM
# [28] = second compound 0.316 µM, first compound 1 µM
# [29] = second compound 0.316 µM, first compound 3.16 µM
# [30] = second compound 0.316 µM, first compound 10 µM
# [31] = second compound 1 µM, first compound 0.0316 µM
# [32] = second compound 1 µM, first compound 0.1 µM
# [33] = second compound 1 µM, first compound 0.316 µM
# [34] = second compound 1 µM, first compound 1 µM
# [35] = second compound 1 µM, first compound 3.16 µM
# [36] = second compound 1 µM, first compound 10 µM
# 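Further: agents incubated with spheroids for one week before read-out.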
# 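Wherever viability, T/C is given: 100% = DMSO vehicle-treated control wells.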
compound,measurement,setting,value
Cn1ncc(Cl)c1-c1cc(C(=O)NC(CN)Cc2cccc(F)c2)sc1Cl (stereo unspecified) + CC(Nc1ccc2c(c1)OCCn1cc(N3C(=O)OCC3C(F)F)nc1-2)C(N)=O,IC50,second compound 0.00316 µM,614 nM
same,IC50,second compound 0.01 µM,707 nM
same,IC50,second compound 0.0316 µM,561 nM
same,IC50,second compound 0.1 µM,257 nM
same,IC50,second compound 0.316 µM,35.2 nM
same,IC50,second compound 1 µM,< 31.6 nM
same,"viability, T/C",[1],88%
same,"viability, T/C",[2],65.1%
same,"viability, T/C",[3],60.5%
same,"viability, T/C",[4],43.6%
same,"viability, T/C",[5],31.9%
same,"viability, T/C",[6],6.62%
same,"viability, T/C",[7],89.3%
same,"viability, T/C",[8],72.4%
same,"viability, T/C",[9],64.7%
same,"viability, T/C",[10],44.9%
same,"viability, T/C",[11],25.7%
same,"viability, T/C",[12],8.23%
same,"viability, T/C",[13],75.7%
same,"viability, T/C",[14],62.9%
same,"viability, T/C",[15],56.5%
same,"viability, T/C",[16],47.7%
same,"viability, T/C",[17],22.9%
same,"viability, T/C",[18],5.89%
same,"viability, T/C",[19],64.5%
same,"viability, T/C",[20],61.6%
same,"viability, T/C",[21],40.3%
same,"viability, T/C",[22],42.9%
same,"viability, T/C",[23],19.8%
same,"viability, T/C",[24],3.42%
same,"viability, T/C",[25],50.2%
same,"viability, T/C",[26],50.2%
same,"viability, T/C",[27],34.2%
same,"viability, T/C",[28],39.2%
same,"viability, T/C",[29],16.1%
same,"viability, T/C",[30],1.76%
same,"viability, T/C",[31],38.1%
same,"viability, T/C",[32],29%
same,"viability, T/C",[33],32.4%
same,"viability, T/C",[34],24.4%
same,"viability, T/C",[35],12.2%
same,"viability, T/C",[36],1.17%
Cn1nccc1Nc1nccc(-c2ccn(C(CO)c3ccc(Cl)c(F)c3)c(=O)c2)n1 (stereo unspecified) + COc1c(OCCCN2CCOCC2)ccc2c3n(c(=NC(=O)c4cnc(N)nc4)nc12)CCN3,IC50,second compound 0.00316 µM,7090 nM
same,IC50,second compound 0.01 µM,5010 nM
same,IC50,second compound 0.0316 µM,1040 nM
same,IC50,second compound 0.1 µM,< 31.6 nM
same,IC50,second compound 0.316 µM,< 31.6 nM
same,IC50,second compound 1 µM,< 31.6 nM
same,"viability, T/C",[1],94.4%
same,"viability, T/C",[2],91.3%
same,"viability, T/C",[3],106%
same,"viability, T/C",[4],93.5%
same,"viability, T/C",[5],83.7%
same,"viability, T/C",[6],35.7%
same,"viability, T/C",[7],88.8%
same,"viability, T/C",[8],91.7%
same,"viability, T/C",[9],83.3%
same,"viability, T/C",[10],94.7%
same,"viability, T/C",[11],67%
same,"viability, T/C",[12],24.3%
same,"viability, T/C",[13],61%
same,"viability, T/C",[14],59.8%
same,"viability, T/C",[15],53.6%
same,"viability, T/C",[16],51.6%
same,"viability, T/C",[17],38.1%
same,"viability, T/C",[18],12.8%
same,"viability, T/C",[19],25.1%
same,"viability, T/C",[20],22.6%
same,"viability, T/C",[21],22.3%
same,"viability, T/C",[22],17.9%
same,"viability, T/C",[23],10.5%
same,"viability, T/C",[24],6.36%
same,"viability, T/C",[25],7.7%
same,"viability, T/C",[26],8.43%
same,"viability, T/C",[27],5.39%
same,"viability, T/C",[28],3.86%
same,"viability, T/C",[29],3.44%
same,"viability, T/C",[30],1.9%
same,"viability, T/C",[31],2.72%
same,"viability, T/C",[32],2.95%
same,"viability, T/C",[33],1.79%
same,"viability, T/C",[34],2.14%
same,"viability, T/C",[35],0.55%
same,"viability, T/C",[36],0.89%
CC(C)n1nc(-c2ccc3oc(N)nc3c2)c2c(N)ncnc21 + Cc1nc(NC(=O)N2CCCC2C(N)=O)sc1-c1ccnc(C(C)(C)C(F)(F)F)c1,IC50,second compound 0.0316 µM,49.5 nM
same,IC50,second compound 0.1 µM,42.8 nM
same,IC50,second compound 0.316 µM,33.1 nM
same,IC50,second compound 1 µM,11.1 nM
same,IC50,second compound 3.16 µM,< 0.316 nM
same,IC50,second compound 10 µM,< 0.316 nM
same,"viability, T/C","second compound 0.0316 µM, first compound 0.000316 µM",85.8%
same,"viability, T/C","second compound 0.0316 µM, first compound 0.001 µM",86.9%
same,"viability, T/C","second compound 0.0316 µM, first compound 0.00316 µM",106%
same,"viability, T/C","second compound 0.0316 µM, first compound 0.01 µM",87.6%
same,"viability, T/C",[13],70.7%
same,"viability, T/C",[14],17.8%
same,"viability, T/C","second compound 0.1 µM, first compound 0.000316 µM",105%
same,"viability, T/C","second compound 0.1 µM, first compound 0.001 µM",88.5%
same,"viability, T/C","second compound 0.1 µM, first compound 0.00316 µM",97.2%
same,"viability, T/C","second compound 0.1 µM, first compound 0.01 µM",82.8%
same,"viability, T/C",[19],63.6%
same,"viability, T/C",[20],14.7%
same,"viability, T/C","second compound 0.316 µM, first compound 0.000316 µM",68.4%
same,"viability, T/C","second compound 0.316 µM, first compound 0.001 µM",87.6%
same,"viability, T/C","second compound 0.316 µM, first compound 0.00316 µM",87.4%
same,"viability, T/C","second compound 0.316 µM, first compound 0.01 µM",75.1%
same,"viability, T/C",[25],51.8%
same,"viability, T/C",[26],12.3%
same,"viability, T/C","second compound 1 µM, first compound 0.000316 µM",67.5%
same,"viability, T/C","second compound 1 µM, first compound 0.001 µM",66.9%
same,"viability, T/C","second compound 1 µM, first compound 0.00316 µM",55.9%
same,"viability, T/C","second compound 1 µM, first compound 0.01 µM",51.4%
same,"viability, T/C",[31],37.8%
same,"viability, T/C",[32],8.4%
same,"viability, T/C","second compound 3.16 µM, first compound 0.000316 µM",42.5%
same,"viability, T/C","second compound 3.16 µM, first compound 0.001 µM",44.7%
same,"viability, T/C","second compound 3.16 µM, first compound 0.00316 µM",35.8%
same,"viability, T/C","second compound 3.16 µM, first compound 0.01 µM",34.1%
same,"viability, T/C","second compound 3.16 µM, first compound 0.0316 µM",20.5%
same,"viability, T/C","second compound 3.16 µM, first compound 0.1 µM",5.68%
same,"viability, T/C","second compound 10 µM, first compound 0.000316 µM",22.9%
same,"viability, T/C","second compound 10 µM, first compound 0.001 µM",19.3%
same,"viability, T/C","second compound 10 µM, first compound 0.00316 µM",20.3%
same,"viability, T/C","second compound 10 µM, first compound 0.01 µM",16.2%
same,"viability, T/C","second compound 10 µM, first compound 0.0316 µM",11.9%
same,"viability, T/C","second compound 10 µM, first compound 0.1 µM",3.12%

# — PubChem BioAssay AID1963967 (Molecular Pharmacology Branch, DTP, NCI, 2024)
